What was measured:
Assay in all cases: biochemical
Design in all cases: KinomeScan competition binding panel (DiscoveRx), percent of control at 1 uM
Settings in all cases: read-out: Percent Control
[1] = biological target: CDKL3 (Homo sapiens, UniProt Q8IVW4)
Outline: (§1)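 KinomeScan technology used to profile binding across a panel of 456 kinases and mutants.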

[2] = biological target: ABL2 (Homo sapiens, UniProt P42684)
Outline: as §1

[3] = biological target: MARK3 (Homo sapiens, UniProt P27448)
Outline: as §1

[4] = biological target: INSRR (Homo sapiens, UniProt P14616)
Outline: as §1

[5] = biological target: T1, PCTK3 (Homo sapiens, UniProt Q07002)
T1 construct: gene CDK18
Outline: as §1

[6] = biological target: T2, ERK5 (Homo sapiens, UniProt Q13164)
T2 construct: gene MAPK7
Outline: as §1

[7] = biological target: ALK(L1196M) (Homo sapiens, UniProt Q9UM73, L1196M)
Outline: as §1

[8] = biological target: PIM1 (Homo sapiens, UniProt P11309)
Outline: as §1

[9] = biological target: EPHA3 (Homo sapiens, UniProt P29320)
Outline: as §1

[10] = biological target: T3, ERK2 (Homo sapiens, UniProt P28482)
T3 construct: gene MAPK1
Outline: as §1

[11] = biological target: FLT3 (Homo sapiens, UniProt P36888)
Outline: as §1

[12] = biological target: FLT3(D835Y) (Homo sapiens, UniProt P36888, D835Y)
Outline: as §1

[13] = biological target: T4, RSK3(Kin.Dom.2-C-terminal) (Homo sapiens, UniProt Q15349)
T4 construct: gene RPS6KA2; Kin.Dom.2-C-terminal
Outline: as §1

[14] = biological target: KIT-autoinhibited (Homo sapiens, UniProt P10721)
Outline: as §1

[15] = biological target: MAP4K4 (Homo sapiens, UniProt O95819)
Outline: as §1

[16] = biological target: EPHB2 (Homo sapiens, UniProt P29323)
Outline: as §1

[17] = biological target: T5, QSK (Homo sapiens, UniProt Q9Y2K2)
T5 construct: gene SIK3
Outline: as §1

[18] = biological target: LATS2 (Homo sapiens, UniProt Q9NRM7)
Outline: as §1

[19] = biological target: CSNK1D (Homo sapiens, UniProt P48730)
Outline: as §1

[20] = biological target: RIOK1 (Homo sapiens, UniProt Q9BRS2)
Outline: as §1

[21] = biological target: T6, MKK7 (Homo sapiens, UniProt O14733)
T6 construct: gene MAP2K7
Outline: as §1

[22] = biological target: T7, PYK2 (Homo sapiens, UniProt Q14289)
T7 construct: gene PTK2B
Outline: as §1

[23] = biological target: STK36 (Homo sapiens, UniProt Q9NRP7)
Outline: as §1

[24] = biological target: SIK2 (Homo sapiens, UniProt Q9H0K1)
Outline: as §1

[25] = biological target: T8, RSK4(Kin.Dom.2-C-terminal) (Homo sapiens, UniProt Q9UK32)
T8 construct: gene RPS6KA6; Kin.Dom.2-C-terminal
Outline: as §1

T2 sequence (Q13164 whole entry): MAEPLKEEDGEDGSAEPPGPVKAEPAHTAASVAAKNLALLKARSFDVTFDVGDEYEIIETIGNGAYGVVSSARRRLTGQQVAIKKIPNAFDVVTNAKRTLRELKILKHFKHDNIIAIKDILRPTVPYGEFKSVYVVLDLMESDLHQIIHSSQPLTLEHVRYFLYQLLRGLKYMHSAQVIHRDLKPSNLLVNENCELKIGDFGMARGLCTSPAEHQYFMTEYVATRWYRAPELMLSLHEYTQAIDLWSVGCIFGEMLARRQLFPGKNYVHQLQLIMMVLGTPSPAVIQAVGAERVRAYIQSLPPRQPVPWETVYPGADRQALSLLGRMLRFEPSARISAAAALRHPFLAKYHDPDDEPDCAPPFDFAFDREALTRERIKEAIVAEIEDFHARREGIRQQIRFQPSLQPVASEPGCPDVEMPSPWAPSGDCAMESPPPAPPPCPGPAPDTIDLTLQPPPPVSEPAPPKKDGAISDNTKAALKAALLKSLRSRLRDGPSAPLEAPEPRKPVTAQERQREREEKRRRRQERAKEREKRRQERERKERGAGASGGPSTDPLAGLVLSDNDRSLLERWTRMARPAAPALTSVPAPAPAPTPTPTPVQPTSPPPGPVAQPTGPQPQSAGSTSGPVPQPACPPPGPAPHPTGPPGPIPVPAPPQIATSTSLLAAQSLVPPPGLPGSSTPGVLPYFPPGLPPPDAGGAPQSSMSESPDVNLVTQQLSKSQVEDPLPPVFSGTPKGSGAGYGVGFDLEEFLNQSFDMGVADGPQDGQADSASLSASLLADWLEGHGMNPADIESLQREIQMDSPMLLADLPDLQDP
T6 sequence (O14733 whole entry): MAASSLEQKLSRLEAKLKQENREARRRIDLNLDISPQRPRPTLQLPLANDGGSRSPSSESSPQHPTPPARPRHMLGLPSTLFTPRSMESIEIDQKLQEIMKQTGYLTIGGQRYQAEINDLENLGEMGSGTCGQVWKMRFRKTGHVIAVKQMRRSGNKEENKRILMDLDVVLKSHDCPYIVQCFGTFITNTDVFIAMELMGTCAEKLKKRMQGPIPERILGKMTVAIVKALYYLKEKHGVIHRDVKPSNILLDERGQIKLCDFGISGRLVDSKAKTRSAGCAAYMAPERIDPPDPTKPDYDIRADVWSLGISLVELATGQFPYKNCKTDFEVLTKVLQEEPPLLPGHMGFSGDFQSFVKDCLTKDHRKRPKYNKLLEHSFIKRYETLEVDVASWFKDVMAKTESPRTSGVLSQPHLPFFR
EPHB2, sequence (P29323 whole entry): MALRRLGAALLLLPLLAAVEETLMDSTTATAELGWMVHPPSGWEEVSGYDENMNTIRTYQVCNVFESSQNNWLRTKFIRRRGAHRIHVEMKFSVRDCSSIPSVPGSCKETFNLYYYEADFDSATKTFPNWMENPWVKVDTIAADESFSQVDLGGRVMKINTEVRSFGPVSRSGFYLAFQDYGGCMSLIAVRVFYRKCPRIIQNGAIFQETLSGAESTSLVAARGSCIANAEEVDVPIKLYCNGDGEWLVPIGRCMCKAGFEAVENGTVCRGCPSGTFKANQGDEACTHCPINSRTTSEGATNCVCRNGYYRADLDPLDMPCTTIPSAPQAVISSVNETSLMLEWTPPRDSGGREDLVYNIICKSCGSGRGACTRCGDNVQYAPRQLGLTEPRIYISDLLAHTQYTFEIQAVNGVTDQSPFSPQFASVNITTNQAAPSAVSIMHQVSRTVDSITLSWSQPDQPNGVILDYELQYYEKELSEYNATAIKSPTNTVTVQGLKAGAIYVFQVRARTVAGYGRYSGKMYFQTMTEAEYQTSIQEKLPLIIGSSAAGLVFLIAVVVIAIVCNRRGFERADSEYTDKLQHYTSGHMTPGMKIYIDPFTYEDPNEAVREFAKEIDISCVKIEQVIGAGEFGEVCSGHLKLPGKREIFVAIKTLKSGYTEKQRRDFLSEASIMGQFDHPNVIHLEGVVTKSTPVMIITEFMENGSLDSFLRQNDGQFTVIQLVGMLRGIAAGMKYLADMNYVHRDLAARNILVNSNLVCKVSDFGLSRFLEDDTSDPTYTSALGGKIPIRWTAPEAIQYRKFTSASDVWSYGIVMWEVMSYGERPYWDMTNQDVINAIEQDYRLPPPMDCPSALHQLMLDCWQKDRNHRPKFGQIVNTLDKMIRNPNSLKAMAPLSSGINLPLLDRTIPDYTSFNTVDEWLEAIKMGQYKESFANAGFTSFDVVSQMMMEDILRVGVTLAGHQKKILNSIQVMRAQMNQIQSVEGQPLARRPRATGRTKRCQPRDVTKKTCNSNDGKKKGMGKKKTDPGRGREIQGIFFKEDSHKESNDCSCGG
T7 sequence (Q14289 whole entry): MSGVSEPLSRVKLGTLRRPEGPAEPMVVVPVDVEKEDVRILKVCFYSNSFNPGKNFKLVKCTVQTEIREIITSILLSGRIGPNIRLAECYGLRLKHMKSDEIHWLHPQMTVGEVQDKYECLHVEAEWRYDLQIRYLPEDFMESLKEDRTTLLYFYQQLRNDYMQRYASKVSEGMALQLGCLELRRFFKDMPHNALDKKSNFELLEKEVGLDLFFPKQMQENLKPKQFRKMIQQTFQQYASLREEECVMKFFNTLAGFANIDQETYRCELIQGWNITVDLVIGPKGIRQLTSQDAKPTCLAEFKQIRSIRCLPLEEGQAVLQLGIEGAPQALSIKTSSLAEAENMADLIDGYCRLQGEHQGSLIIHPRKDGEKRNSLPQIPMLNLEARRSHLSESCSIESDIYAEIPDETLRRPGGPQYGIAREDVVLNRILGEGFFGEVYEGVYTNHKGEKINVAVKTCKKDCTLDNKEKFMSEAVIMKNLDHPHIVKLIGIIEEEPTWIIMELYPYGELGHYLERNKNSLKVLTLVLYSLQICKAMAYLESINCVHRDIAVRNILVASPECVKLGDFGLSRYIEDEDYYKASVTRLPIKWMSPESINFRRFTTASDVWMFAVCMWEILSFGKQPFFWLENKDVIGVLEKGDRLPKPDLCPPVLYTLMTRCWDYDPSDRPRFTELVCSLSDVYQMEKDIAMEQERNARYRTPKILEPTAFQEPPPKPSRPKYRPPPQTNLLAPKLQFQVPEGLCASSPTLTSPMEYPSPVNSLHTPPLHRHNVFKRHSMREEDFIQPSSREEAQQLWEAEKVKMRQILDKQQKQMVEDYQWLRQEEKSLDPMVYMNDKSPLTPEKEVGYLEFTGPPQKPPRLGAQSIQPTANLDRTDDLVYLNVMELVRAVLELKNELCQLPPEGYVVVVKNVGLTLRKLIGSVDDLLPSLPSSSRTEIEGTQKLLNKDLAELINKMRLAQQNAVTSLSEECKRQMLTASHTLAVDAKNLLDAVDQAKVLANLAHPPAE
EPHA3, sequence (P29320 whole entry): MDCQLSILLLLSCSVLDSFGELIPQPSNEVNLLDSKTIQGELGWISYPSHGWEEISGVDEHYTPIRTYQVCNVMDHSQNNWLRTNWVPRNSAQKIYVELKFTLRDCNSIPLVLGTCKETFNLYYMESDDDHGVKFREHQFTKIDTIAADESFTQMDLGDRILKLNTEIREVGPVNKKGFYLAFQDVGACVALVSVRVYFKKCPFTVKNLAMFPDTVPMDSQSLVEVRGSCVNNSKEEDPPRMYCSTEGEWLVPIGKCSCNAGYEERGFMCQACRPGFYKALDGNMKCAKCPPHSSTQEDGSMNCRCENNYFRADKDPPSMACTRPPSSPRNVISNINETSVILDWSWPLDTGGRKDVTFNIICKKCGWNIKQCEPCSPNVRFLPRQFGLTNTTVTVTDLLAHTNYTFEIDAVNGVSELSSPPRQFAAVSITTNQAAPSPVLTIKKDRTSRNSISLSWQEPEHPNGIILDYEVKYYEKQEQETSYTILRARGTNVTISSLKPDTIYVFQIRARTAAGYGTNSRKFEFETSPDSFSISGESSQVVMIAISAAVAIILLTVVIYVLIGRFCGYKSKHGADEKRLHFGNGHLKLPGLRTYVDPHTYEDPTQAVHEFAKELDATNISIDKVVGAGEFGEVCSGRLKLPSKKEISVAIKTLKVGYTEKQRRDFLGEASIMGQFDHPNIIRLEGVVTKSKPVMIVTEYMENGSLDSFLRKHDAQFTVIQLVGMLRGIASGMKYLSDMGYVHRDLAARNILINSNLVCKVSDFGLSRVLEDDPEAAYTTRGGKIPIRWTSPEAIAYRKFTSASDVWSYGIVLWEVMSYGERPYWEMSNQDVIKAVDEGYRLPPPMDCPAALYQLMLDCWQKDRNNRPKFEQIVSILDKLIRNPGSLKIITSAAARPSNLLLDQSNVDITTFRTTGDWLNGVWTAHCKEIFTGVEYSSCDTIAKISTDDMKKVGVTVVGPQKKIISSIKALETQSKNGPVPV
T1 sequence (Q07002 whole entry): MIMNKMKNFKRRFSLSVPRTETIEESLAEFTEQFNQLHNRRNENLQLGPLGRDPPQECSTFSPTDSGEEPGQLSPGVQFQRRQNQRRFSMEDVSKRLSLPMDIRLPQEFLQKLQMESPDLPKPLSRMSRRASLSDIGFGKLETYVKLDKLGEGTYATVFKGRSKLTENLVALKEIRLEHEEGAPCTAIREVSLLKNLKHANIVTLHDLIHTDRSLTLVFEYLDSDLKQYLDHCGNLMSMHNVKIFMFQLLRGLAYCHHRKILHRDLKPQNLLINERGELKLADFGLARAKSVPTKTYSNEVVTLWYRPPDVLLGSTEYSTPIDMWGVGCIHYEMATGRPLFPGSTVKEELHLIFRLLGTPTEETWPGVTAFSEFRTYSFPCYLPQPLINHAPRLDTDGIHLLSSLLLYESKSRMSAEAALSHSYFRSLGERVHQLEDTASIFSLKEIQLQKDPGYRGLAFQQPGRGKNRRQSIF
PIM1, sequence (P11309 whole entry): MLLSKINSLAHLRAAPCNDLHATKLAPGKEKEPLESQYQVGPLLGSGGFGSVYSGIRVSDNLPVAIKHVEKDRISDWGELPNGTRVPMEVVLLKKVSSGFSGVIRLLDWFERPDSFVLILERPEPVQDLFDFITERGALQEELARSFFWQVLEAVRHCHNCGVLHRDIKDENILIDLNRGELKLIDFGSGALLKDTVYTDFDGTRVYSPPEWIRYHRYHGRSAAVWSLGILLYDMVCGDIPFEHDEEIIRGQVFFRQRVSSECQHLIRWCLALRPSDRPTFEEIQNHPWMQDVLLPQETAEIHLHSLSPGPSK

C=CC(=O)Nc1cc(-n2c(=O)ccc3cnc4ccc(-n5cccn5)cc4c32)ccc1C [CHMFL-BTK-11]
remaining binding at 1 µM [1]: 90% | remaining binding at 1 µM [2]: 100% | remaining binding at 1 µM [3]: 100% | remaining binding at 1 µM [4]: 100% | remaining binding at 1 µM [5]: 90% | remaining binding at 1 µM [6]: 100% | remaining binding at 1 µM [7]: 88% | remaining binding at 1 µM [8]: 82% | remaining binding at 1 µM [9]: 97% | remaining binding at 1 µM [10]: 100% | remaining binding at 1 µM [11]: 100% | remaining binding at 1 µM [12]: 100% | remaining binding at 1 µM [13]: 100% | remaining binding at 1 µM [14]: 83% | remaining binding at 1 µM [15]: 97% | remaining binding at 1 µM [16]: 89% | remaining binding at 1 µM [17]: 92% | remaining binding at 1 µM [18]: 100% | remaining binding at 1 µM [19]: 100% | remaining binding at 1 µM [20]: 66% | remaining binding at 1 µM [21]: 77% | remaining binding at 1 µM [22]: 100% | remaining binding at 1 µM [23]: 97% | remaining binding at 1 µM [24]: 98% | remaining binding at 1 µM [25]: 100%
